How the values were obtained:
MEK1 = MEK1 (Homo sapiens, UniProt Q02750); experiment: Biochemical MEK1 assay (ELISA, ERK2-coated plate)
Experimental: A biochemical MEK1 assay was carried out to investigate whether compounds of formula (I) or (II), e.g., compounds 029, 091, 106 and 114 are MEK1 inhibitors. Biochemical MEK1 inhibition of the compounds was assessed using an ELISA assay. All assays were performed in a 96 well format. A plate coated with ERK2, a substrate protein for MEK1 was used for biochemical MEK1 assay. In a final volume of 40 μL, MEK1 (25 ng) was incubated with 50 mmol/L HEPES, 20 mmol/L MgCl2, 4 mmol/L MnCl2, and 0.5 mmol/L Na3VO4 in the absence or presence of the test compounds. The reaction was initiated by the addition of 1 μmol/L ATP. After incubation for 40 minutes at 30° C., the reaction mixture was discarded and the plate was then washed 4 times with 0.05% Tween20/PBS. Each well was incubated with 100 μL of 1:4000 diluted phospho-ERK1/2 monoclonal antibody (Cell Signaling, MA) for 1.5 hours at room temperature. The antibody was then discarded and the plate was washed 6 times with 0.05% Tween20/PBS. Finally, 100 μL of 1:2000 diluted of HRP conjugated anti-mouse IgG antibody (Cell Signaling, MA) was added. After incubation for 90 minutes, this antibody was discarded and the plate was washed 8 times with 0.05% Tween20/PBS. Phosphorylated ERK2 was then visualized by peroxidase reaction, and read at 450 nm. FIG. 2A is a table depicting results from MEK1 assays.

c-Src = c-Src (Homo sapiens, UniProt P12931); experiment: Kinase inhibition, full range of concentrations; type: biochemical; conditions: 10 μM ATP, duplicate measurements
c-Src, sequence (P12931 whole entry): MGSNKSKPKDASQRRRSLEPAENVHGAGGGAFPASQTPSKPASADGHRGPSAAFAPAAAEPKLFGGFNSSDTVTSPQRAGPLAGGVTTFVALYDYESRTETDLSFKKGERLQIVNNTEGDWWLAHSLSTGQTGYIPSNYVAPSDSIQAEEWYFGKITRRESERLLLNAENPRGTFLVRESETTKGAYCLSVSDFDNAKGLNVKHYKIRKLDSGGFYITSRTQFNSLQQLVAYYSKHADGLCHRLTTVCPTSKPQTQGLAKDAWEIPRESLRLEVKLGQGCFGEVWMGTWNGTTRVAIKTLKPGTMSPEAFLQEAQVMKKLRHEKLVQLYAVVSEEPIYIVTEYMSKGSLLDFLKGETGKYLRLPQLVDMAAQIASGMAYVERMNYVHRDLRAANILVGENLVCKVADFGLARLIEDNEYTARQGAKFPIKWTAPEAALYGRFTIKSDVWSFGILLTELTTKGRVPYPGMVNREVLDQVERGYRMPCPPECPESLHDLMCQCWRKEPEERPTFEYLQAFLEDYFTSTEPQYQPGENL
Experimental: In a final reaction volume of 25 μL, each human enzyme was incubated with appropriate buffer. The reaction was initiated by the addition of the MgATP mix with [γ^33P-ATP]. After incubation for 40 minutes at room temperature, the reaction was stopped by the addition of 5 μL of a phosphoric acid solution. All assays were performed at an ATP concentration of 10 μM.
10 μL of the reaction was spotted onto a P30 filtermat and washed three times for 5 minutes in a phosphoric acid solution. ^33P transferred to a substrate peptide was then determined by scintillation counting. The results were expressed as a percentage of that in control incubations.
Furthermore, inhibitory activities of the compounds were confirmed against six of these kinases with a full range of concentrations. Three cytoplasmic Src family kinases were studied: c-Src, Fyn and Lyn. We also studied cytoplasmic Abl kinase and two receptor tyrosine kinases: Flt3, and TrkB. A standard ATP concentration of 10 μM was used in all reactions. All experiments were conducted with duplicate measurements. […] TrkB and members of the Src family were the most sensitive enzymes to Compound 091 inhibition.

[1] = tested on: BxPC-3 human pancreatic cancer xenografts; experiment: In vivo antitumor activity in BxPC-3 xenografts; set-up: species or system mice; conditions: 30 mg/kg i.v., two weekly rounds of q1d×5
Experimental: A study was carried out to investigate anticancer activity of compound 091 in human BxPC-3 pancreatic cancer xenografts. The compound was evaluated against subcutaneous-implanted BxPC-3 human pancreatic cancer xenografts in female athymic mice.
The human pancreatic cancer cell line, BxPC-3-T1 (no mutations on B-RAF and Ras genes) was transplanted subcutaneously into female nude mice. The experiment consisted of 8 mice per group on the first day of treatment. The compound was administered intravenously for two weekly rounds of five daily injections (q1d×5) with a two-day rest period between the rounds. The compound was administered in a vehicle volume of 0.1 mL/10 g of body weight.
The general health of the mice was monitored daily. Tumor dimensions and body weights were recorded twice a week starting on the first day of treatment. Tumor weights were calculated using the equation (l×w^2)/2, where 1 and w refer to the larger and smaller dimensions collected at each measurement. When the mean tumor volume reached 130 mm^3, vehicle (cremophor:ethanol:5% glucose; 1:1:8) or the test compound (15, 30 mg/kg) was administered to mice (8/group).

[2] = tested on: human hematologic cancer cell lines; experiment: Antiproliferative effects in hematologic cancer cell lines (MTT assay); type: cell-based; conditions: two cell lines derived from B-cell non-Hodgkin's lymphoma, 96 h
Experimental: A study was carried out to investigate anticancer activity of compounds 091 and 106 in a panel of human hematologic cancer cell lines in vitro. Antiproliferative effects of compounds 091 and 106 were evaluated in 7 human cancer cell lines representing several different cancer types of hematologic malignancy. […] Cell growth was assessed using the MTT assay.

[3] = Blood brain barrier penetration; conditions: in vivo

MEK1, sequence (Q02750 whole entry): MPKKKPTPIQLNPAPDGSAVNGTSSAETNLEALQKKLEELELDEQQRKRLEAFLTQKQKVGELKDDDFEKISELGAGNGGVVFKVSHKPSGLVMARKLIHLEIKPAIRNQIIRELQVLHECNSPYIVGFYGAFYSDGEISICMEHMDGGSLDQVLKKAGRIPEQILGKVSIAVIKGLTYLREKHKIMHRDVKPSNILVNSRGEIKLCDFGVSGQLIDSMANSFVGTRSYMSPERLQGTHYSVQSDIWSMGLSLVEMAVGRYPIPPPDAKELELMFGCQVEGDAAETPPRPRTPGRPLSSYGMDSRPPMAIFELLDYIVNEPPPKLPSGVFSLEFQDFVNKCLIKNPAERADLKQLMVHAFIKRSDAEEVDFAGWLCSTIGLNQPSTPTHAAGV

## CNc1cc(O)c2c(c1)/C=C/C[C@H](O)[C@H](O)C(=O)/C=C\[C@@H](C)[C@H](C)OC2=O [Compound 091]
MEK1; 1 μmol/L ATP
  MEK1 inhibitory activity: low nM activity
MEK1; at a low concentration of ATP
  MEK1 inhibitory activity, dependence on ATP: more potent
c-Src
  IC50: < 214 nM
[1]
  tumor regression: 50%
[2]
  sensitivity of cell growth: sensitive
[3]
  brain/plasma AUC0-t ratio: 3.170
